From ChEMBL document CHEMBL3217570, “A class of novel AA-Trp-Trp-OBzl: synthesis, in vitro anti-proliferation, in vivo anti-tumor action, and intercalation mechanism” (Medchemcomm, 2011)
Activity calls are given as the source filed them. The calls are words filed in the database; no cut-off is given here. Residues, ends and D or L forms follow the SMILES beside them. *: point of attachment. OBn = c1ccc(CO*)cc1

How the values were obtained:
[1] = tested on: Mus musculus; assay: Toxicity in mouse S180 cells allografted ICR mouse assessed as kidney weight at 8.9 mg/kg, ip qd for 7 days relative to control; type: organism-based, CCRF S-180; design: dose 8.9 mg/kg, route intraperitoneal; settings: in vivo, 168 h
[2] = tested on: CCRF S-180; assay: Antitumor activity against mouse S180 cells allografted in ip dosed ICR mouse assessed as tumor growth inhibition administered qd for 7 days relative to control; type: functional, organism-based
[3] = tested on: Calf thymus DNA; assay: Binding affinity to calf thymus DNA assessed as increase of DNA […] at compound-DNA ratio up to 0.36; type: nucleic-acid assay; settings: Bos taurus
[4] = tested on: K562; assay: Antiproliferative activity against human K562 cells after 48 hrs by MTT assay; type: functional, cell-based; settings: K562, 48 h
[5] = tested on: HepG2; assay: Antiproliferative activity against human HepG2 cells after 48 hrs by MTT assay; type: functional, cell-based; settings: HepG2, 48 h
[6] = tested on: Calf thymus DNA; assay: Binding affinity to 70 uM of calf thymus DNA assessed as decrease in fluorescence intensity at 50 uM by fluorescence spectra analysis; type: nucleic-acid assay; design: scale not given: the % may be the effect or the level left; settings: Bos taurus
[7] = Acute toxicity in ip dosed ICR mouse after 7 days; type: organism-based; settings: in vivo
[8] = tested on: Mus musculus; assay: Toxicity in mouse S180 cells allografted ICR mouse assessed as brain weight at 8.9 mg/kg, ip qd for 7 days relative to control; type: organism-based, CCRF S-180; design: dose 8.9 mg/kg, route intraperitoneal; settings: in vivo, 168 h
[9] = tested on: Mus musculus; assay: Toxicity in mouse S180 cells allografted ICR mouse assessed as increase of body weight at 8.9 mg/kg, ip qd for 7 days relative to control; type: organism-based, CCRF S-180; design: dose 8.9 mg/kg, route intraperitoneal; settings: in vivo, 168 h
[10] = tested on: CCRF S-180; assay: Antiproliferative activity against mouse S180 cells after 48 hrs by MTT assay; type: functional, cell-based; settings: CCRF S-180, 48 h
[11] = tested on: Mus musculus; assay: Toxicity in ICR mouse assessed as mortality up to 500 mg/kg, ip after 7 days; type: organism-based; design: dose 500 mg/kg, route intraperitoneal; settings: in vivo, 168 h
[12] = tested on: Mus musculus; assay: Toxicity in ICR mouse assessed as changes in organs up to 500 mg/kg, ip after 7 days by necropsy analysis; type: organism-based; design: dose 500 mg/kg, route intraperitoneal; settings: in vivo, 168 h
[13] = tested on: CCRF S-180; assay: Antitumor activity against mouse S180 cells allografted in ICR mouse assessed as tumor growth inhibition at 8.9 mg/kg, ip qd for 7 days relative to control; type: functional; settings: CCRF S-180, ip, 168 h, route intraperitoneal, read-out: TGI
[14] = tested on: Calf thymus DNA; assay: Binding affinity to calf thymus DNA assessed as melting temperature at 10 uM; type: nucleic-acid assay; settings: Bos taurus
[15] = tested on: CCRF S-180; assay: Antitumor activity against mouse S180 cells allografted in ICR mouse assessed as tumor growth inhibition at 0.089 mg/kg, ip qd for 7 days relative to control; type: functional; settings: CCRF S-180, ip, 168 h, route intraperitoneal, read-out: TGI
[16] = tested on: Calf thymus DNA; assay: Binding affinity to 10 to 70 uM of calf thymus DNA assessed as decrease in fluorescence intensity at 50 uM by fluorescence spectra analysis; type: nucleic-acid assay; settings: Bos taurus
[17] = tested on: B16; assay: Antiproliferative activity against mouse B16 cells after 48 hrs by MTT assay; type: functional, cell-based; settings: B16, 48 h
[18] = tested on: Mus musculus; assay: Toxicity in mouse S180 cells allografted ICR mouse assessed as liver weight at 8.9 mg/kg, ip qd for 7 days relative to control; type: organism-based, CCRF S-180; design: dose 8.9 mg/kg, route intraperitoneal; settings: in vivo, 168 h
[19] = tested on: CCRF S-180; assay: Antitumor activity against mouse S180 cells allografted in ICR mouse assessed as tumor growth inhibition at 0.89 mg/kg, ip qd for 7 days relative to control; type: functional; settings: CCRF S-180, ip, 168 h, route intraperitoneal, read-out: TGI
[20] = tested on: Mus musculus; assay: Toxicity in mouse S180 cells allografted ICR mouse assessed as spleen index at 8.9 mg/kg, ip qd for 7 days relative to control; type: organism-based, CCRF S-180; design: dose 8.9 mg/kg, route intraperitoneal; settings: in vivo, 168 h
[21] = tested on: H22; assay: Antiproliferative activity against mouse H22 cells after 48 hrs by MTT assay; type: functional, cell-based; settings: H22, 48 h
[22] = tested on: Mus musculus; assay: Neurotoxicity in ICR mouse assessed as neurotoxic behavior up to 500 mg/kg, ip after 7 days; type: toxicity, organism-based; design: dose 500 mg/kg, route intraperitoneal; settings: in vivo, 168 h

SMILES | Activity [1] | IC50 [4] [µM] | IC50 [5] [µM] | LD50 at 168 h [7] [mg/kg] | Activity [8] | Activity [9] | IC50 [10] [µM] | Activity [11] | Activity [12] | inhibition in vivo at 8.9 mg/kg [13] [%] | IC50 [17] [µM] | Activity [18] | Activity [20] | IC50 [21] [µM] | Activity [22] | further results
NC(=O)C[C@H](N)C(=O)N[C@@H](Cc1c[nH]c2ccccc12)C(=O)N[C@@H](Cc1c[nH]c2ccccc12)C(=O)OCc1ccccc1 (H-Asn-Trp-Trp-OBn) | Non-toxic | 11 | 11.9 | > 500 | Non-toxic | Toxic | 13.5 | Non-toxic | Non-toxic | 85.1 | 13.8 | Non-toxic | Non-toxic | 11 | Non-toxic | TGI [2]: Dose-dependent effect; Activity [3]: Active; Activity [6]: 35.3%; Tm [14]: 20.8 °C; inhibition in vivo at 0.089 mg/kg [15]: 26.6%; Activity [16]: Active; inhibition in vivo at 0.89 mg/kg [19]: 46.7%
CC[C@H](C)[C@H](N)C(=O)N[C@@H](Cc1c[nH]c2ccccc12)C(=O)N[C@@H](Cc1c[nH]c2ccccc12)C(=O)OCc1ccccc1 (H-Ile-Trp-Trp-OBn) | Non-toxic | 16.2 | 15.1 | > 500 | Non-toxic | Toxic | 15.1 | Non-toxic | Non-toxic | 80.1 | 17.2 | Non-toxic | Non-toxic | 16.1 | Non-toxic | 
CSCC[C@H](N)C(=O)N[C@@H](Cc1c[nH]c2ccccc12)C(=O)N[C@@H](Cc1c[nH]c2ccccc12)C(=O)OCc1ccccc1 (H-Met-Trp-Trp-OBn) | Non-toxic | 17 | 24.3 | > 500 | Non-toxic | Toxic | 19.8 | Non-toxic | Non-toxic | 61.5 | 25.2 | Non-toxic | Non-toxic | 17.5 | Non-toxic | 
N[C@@H](Cc1ccccc1)C(=O)N[C@@H](Cc1c[nH]c2ccccc12)C(=O)N[C@@H](Cc1c[nH]c2ccccc12)C(=O)OCc1ccccc1 (H-Phe-Trp-Trp-OBn) | Non-toxic | 43.7 | 41.2 | > 500 | Non-toxic | Toxic | 34 | Non-toxic | Non-toxic | 24.7 | 34 | Non-toxic | Non-toxic | 37.6 | Non-toxic | 
N[C@@H](CO)C(=O)N[C@@H](Cc1c[nH]c2ccccc12)C(=O)N[C@@H](Cc1c[nH]c2ccccc12)C(=O)OCc1ccccc1 (H-Ser-Trp-Trp-OBn) | Non-toxic | 25.6 | 25.9 | > 500 | Non-toxic | Toxic | 26.3 | Non-toxic | Non-toxic | 48.2 | 48.4 | Non-toxic | Non-toxic | 25.2 | Non-toxic | 
N[C@@H](Cc1ccc(O)cc1)C(=O)N[C@@H](Cc1c[nH]c2ccccc12)C(=O)N[C@@H](Cc1c[nH]c2ccccc12)C(=O)OCc1ccccc1 (H-Tyr-Trp-Trp-OBn) | Non-toxic | 21.3 | 23.6 | > 500 | Non-toxic | Toxic | 22.9 | Non-toxic | Non-toxic | 53.4 | 24.8 | Non-toxic | Non-toxic | 23 | Non-toxic | 
CC(C)[C@H](N)C(=O)N[C@@H](Cc1c[nH]c2ccccc12)C(=O)N[C@@H](Cc1c[nH]c2ccccc12)C(=O)OCc1ccccc1 (H-Val-Trp-Trp-OBn) | Non-toxic | 40.4 | 37.4 | > 500 | Non-toxic | Toxic | 36.1 | Non-toxic | Non-toxic | 33.5 | 50.1 | Non-toxic | Non-toxic | 36 | Non-toxic | 
Nc1ccn([C@@H]2O[C@H](CO)[C@@H](O)[C@@H]2O)c(=O)n1 [CYTARABINE] |  | 43.6 | 38.1 |  |  |  | 40.3 |  |  | 31.9 | 49.2 |  |  | 37.8 |  | inhibition in vivo at 0.089 mg/kg [15]: 7.86%; inhibition in vivo at 0.89 mg/kg [19]: 20.6%
